From US4822811A, “Carbazole lipoxygenase inhibiting compounds, compositions and use” (Abbott Laboratories, priority 1988, dated 1989)
pIC50: −log10 of the molar value.

Target: T1, 5-lipoxygenase (Rattus norvegicus, UniProt P12527)
T1 construct: 20,000xg supernatant from 6×10^4 homogenized RBL-1 cells; endogenous in cells; host or cells: RBL-1 cells (20,000xg supernatant of homogenate)
T1 sequence (P12527 1-673): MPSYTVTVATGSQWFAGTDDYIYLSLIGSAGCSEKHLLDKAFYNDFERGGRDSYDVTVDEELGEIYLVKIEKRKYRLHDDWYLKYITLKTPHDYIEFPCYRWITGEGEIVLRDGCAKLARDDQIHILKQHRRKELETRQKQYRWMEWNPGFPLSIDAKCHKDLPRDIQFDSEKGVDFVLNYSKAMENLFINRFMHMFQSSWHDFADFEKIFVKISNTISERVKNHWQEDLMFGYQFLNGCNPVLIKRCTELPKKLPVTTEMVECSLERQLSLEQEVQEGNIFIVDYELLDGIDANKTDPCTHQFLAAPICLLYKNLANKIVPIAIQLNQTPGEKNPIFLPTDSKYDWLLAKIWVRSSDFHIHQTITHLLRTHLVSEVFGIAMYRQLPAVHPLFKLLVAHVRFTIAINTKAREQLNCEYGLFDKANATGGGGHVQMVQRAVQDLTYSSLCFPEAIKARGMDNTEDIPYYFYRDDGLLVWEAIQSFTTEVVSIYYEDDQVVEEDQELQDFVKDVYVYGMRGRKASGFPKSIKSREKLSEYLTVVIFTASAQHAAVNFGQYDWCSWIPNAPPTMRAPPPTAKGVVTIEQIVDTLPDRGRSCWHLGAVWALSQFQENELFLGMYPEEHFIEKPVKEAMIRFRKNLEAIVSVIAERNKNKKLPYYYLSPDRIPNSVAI
Assay: Lipoxygenase IC50 Determination (in vitro 5-lipoxygenase inhibition, 20,000xg supernatant from homogenized RBL-1 cells)
Format: biochemical
Conditions: radiolabelled arachidonic acid, 2% DMSO, triplicate incubations, read-out: In vitro 5-lipoxygenase inhibitory potency IC50
Description: Lipoxygenase IC50 Determination
Assays to determine 5-lipoxygenase activity were performed in […] incubations containing the 20,000xg supernatant from 6×10^4 homogenized RBL-1 cells, 2% DMSO vehicle and various concentrations of the test compound. Reactions were initiated by addition of radiolabelled arachidonic acid and terminated by acidification and ether extraction. Reaction products were separated from nonconverted substrate by thin layer chromatography and measured by liquid scintillation spectroscopy. All treatments were evaluated in triplicate incubations. Inhibition of 5-lipoxygenase activity was computed by comparison of the quantity of products formed in the treatment incubations to the mean product formation in vehicle control groups (n=8). IC50 values and 95% confidence limits were computed by linear regression analysis of percentage inhibition versus log inhibitor concentration plots. The results of the assay indicate that the compounds are inhibitors of 5-lipoxygenase.

SMILES | pIC50
CC(=O)N(O)C(C)c1ccc2oc3ccccc3c2c1 (stereo not drawn) [Example 1] | 6.54
CCn1c2ccccc2c2cc(CN(O)C(=O)NC)ccc21 [Example 4, N-hydroxy-N-(9-ethylcarbaz-3-ylmethyl) N-methyl urea] | 6.41
CCn1c2ccccc2c2cc(C(C)N(O)C(N)=O)ccc21 (stereo not drawn) [Example 5, N-hydroxy-N-[1-(9-ethylcarbaz-3-yl)ethyl] urea] | 6.42
